Reference: US9408856B2, “Topical steroidal formulations” (Temple University—Of The Commonwealth System of Higher …, priority 2008, dated 2016)
≈ marks a conversion by molar mass, not a printed value.

Legend:
[1] = system: fasting plasma triglyceride levels; test: Phase I/II trial in hypertriglyceridemic patients; type: in vivo, human; details: about 1200 mg oral
Procedure: The lowest effective oral dose of fluasterone which lowers fasting plasma triglycerides in diabetic mice is about 200 mg/kg, which translates into an oral human dose of about 1200 mg.

[2] = Oral single dose PK experiment in mice; type: in vivo; details: 200 mg/kg oral single dose
Procedure: An oral single dose PK experiment in mice following administration of 200 mg/kg fluasterone was performed. The calculated AUC0-24 was 2,242 (ngXh/mL). A PK study was also performed in 12 human volunteers as part of a phase I fluasterone study. The volunteers received either 800 mg or 1600 mg fluasterone orally as a daily dose. The AUC0-24/mg dose was calculated.

[3] = Solubility of fluasterone in solvents and mixed solvents; type: physicochemical; details: thermodynamic from solid
Procedure: Fluasterone: The solubility of fluasterone in various solvents was determined by adding a specific volume of solvent to a weighed amount of fluasterone in a screw-capped glass vial and shaking vigorously for several minutes. Incremental volumes of solvent were added, followed by vigorous shaking, until the fluasterone completely dissolved.
Alternatively solubility was determined by adding a specific volume of solvent to a weighed amount of fluasterone in a screw-capped glass vial and warming the vial on a hot plate with vigorous shaking until the fluasterone dissolved. Fluasterone was considered soluble if it remained in solution after at least a month at room temperature. Although the above procedures may not give precise solubilities, they should give a close approximation of maximum fluasterone solubility.
In these experiments fluasterone solubility was determined by adding fluasterone to a measured volume of solvent in a screw-capped glass vial. The vial was warned on a hot plate with vigorous shaking until the fluasterone dissolved. Fluasterone was considered soluble if it remained in solution after at least a month at room temperature.

[4] = system: TPA-promoted skin tumor promotion; details: Schwartz et al. Carcinogenesis 10:1809-1813, 1989; cited from earlier work

SMILES: C[C@]12CCCCC1=CC[C@@H]1[C@@H]2CC[C@]2(C)C(=O)[C@H](F)C[C@@H]12 [Fluasterone, 16α-fluoro-5-androsten-17-one]
- effect on fasting plasma triglyceride levels [1]: significantly lowered
- AUC0-24 [2]: 2,242 ngXh/mL
- solubility ([3]; 10% Tween 80-90% ethanol (v/v), organic solvent or mixture, room temperature): < 10000 µg/mL
- solubility ([3]; 15% Tween 80-85% ethanol (v/v), organic solvent or mixture, room temperature): < 10000 µg/mL
- solubility ([3]; 20% Tween 80-80% ethanol (v/v), organic solvent or mixture, room temperature): > 10000 µg/mL
- solubility ([3]; 50% Tween 80-50% ethanol (v/v), organic solvent or mixture, room temperature): > 14000 µg/mL
- solubility ([3]; cetyl alcohol:ethanol (10%:90%, w/w), organic solvent or mixture, cetyl alcohol:ethanol (10%:90%, w/w), room temperature): < 10000 µg/mL
- solubility ([3]; cetyl alcohol:ethanol (20%:80%, w/w), organic solvent or mixture, cetyl alcohol:ethanol (20%:80%, w/w), room temperature): < 12000 µg/mL
- solubility ([3]; cetyl alcohol:ethanol mixtures (20-22% cetyl alcohol), organic solvent or mixture, cetyl alcohol:ethanol mixtures (20-22% cetyl alcohol), summary, room temperature): > 10000 µg/mL
- solubility ([3]; dimethyl sulfoxide (DMSO), organic solvent or mixture): 3600 µg/mL (≈ 12.4 mM)
- solubility ([3]; ethanol, organic solvent or mixture): 6600 µg/mL (≈ 22.7 mM)
- solubility ([3]; isopropyl myristate, oil or lipid): 16000 µg/mL (≈ 55.1 mM)
- solubility ([3]; limonene, organic solvent or mixture): 22600 µg/mL (≈ 77.8 mM)
- solubility ([3]; polyethylene glycol 400 (PEG-400), organic solvent or mixture): 1100 µg/mL (≈ 3.79 mM)
- solubility ([3]; propylene glycol, organic solvent or mixture): > 500 µg/mL
- lowest reported oral dose which inhibits TPA-promoted skin tumor promotion [4]: 200 mg/kg
